Laboratory results: patent US20120016010A1, “RNA Interference Mediated Inhibition of BTB and CNC Homology 1, Basic Leucine Zipper Transcription Factor 1 (BACH1) Gene Expression Using Short Interfering Nucleic Acid (siNA)” (Merck Sharp & Dohme Corp, priority 2009, published 2012)
[invAb] = inverted abasic unit; d = 2'-deoxy (DNA); m = 2'-O-methyl; r = 2'-OH (RNA); f = 2'-fluoro

Columns and labels:
[1] = tested on: Heme Oxygenase-1 (HO-1) protein; assay: HO-1 protein expression by Western Blot in airway epithelial cells from a COPD subject; type: cell-based, human; details: FIG. 13, positive controls, 18-hour treatment period
Protocol: Human airway epithelial cells were obtained by bronchoscopy from a subject with COPD (35-pack years). The cells were seeded at a density of 1×10^5 cells in a 24-well plate and incubated at 37° C. and 5% CO2 overnight. […] Whole cell lysates were created to detect Heme Oxygenase-1 (HO-1) protein expression via Western Blot.
Whole cell lysates were quantified and 5 micrograms of protein per lane were loaded into a 12.5% Tris-HCL gel. A 1:5000 dilution of Anti-Human Heme Oxygenase-1 polyclonal antibody (Assay Designs) was used to detect HO-1 protein levels. The blot was stripped and reprobed with a beta actin antibody to confirm equal loading.

[2] = tested on: Bach1 mRNA; assay: Initial screen: Bach1 mRNA knock-down in mouse NIH 3T3 cells (96-well transfection, quantitative RT-PCR); type: cell-based; details: mouse NIH3T3 cells, n = 2, 24 hrs post-transfection, protocol 10 nM siNA
Protocol: (§1) All cells were obtained from ATCC (Manassas, Va.) unless otherwise indicated. Cells were grown and transfected under standard conditions, which are detailed below for each cell line.
(§2) Cells were plated in all wells of a tissue-culture treated, 96-well plate at a final count of 5000 cells/well in 100 μL of the appropriate culture media. The cells were cultured for 24 hours after plating at 37° C. in the presence of 5% CO2.
(§3) After 24 hours, complexes containing siNA and RNAiMax were created as follows: A solution of RNAiMax diluted 33-fold in OPTI-MEM was prepared. […] After incubation of RNAiMax/OPTI-MEM solution at room temperature for 5 min, an equal volume of the siNA solution and the RNAiMax solution were added together for each of the siNAs.
(§4) This solution was incubated at room temperature for 20 minutes. After incubation, 20 uL of the solution was added to each of the relevant wells. The final concentration of siNA in each well was 10 nM and the final volume of RNAiMax in each well was 0.3 ul. […]
(§5) Briefly, a 60 uL (1 plate) or 110 uL (2 plates) of the Lysis Solution with DNase I was dispensed into each well of the Lysis Buffer Plate (twin.tec full skirt plate). The lysis buffer and stop plates were stored at 4° C. until the cells were washed.
(§6) The plate was spun at 1100 rpm for 5 minutes. The culture medium was aspirated and discarded from the wells of the culture plate. The lysis was performed automatically using a BioMek FX instrument and method. After the Biomek method was completed, the lysis plate was incubated for 2 min at room temperature. The lysis plate can be stored for 2 hours at 4° C., or at −20° C. or −80° C. for two months.
(§7) Each well of the reverse transcription plate required 10 uL of 2× reverse transcriptase Buffer, 1 uL of 20× reverse transcription enzyme and 2 uL of nuclease-free water. The reverse transcription master mix was prepared by mixing 2× reverse transcription buffer, 20× reverse transcription enzyme mix, and nuclease-free water. 13 uL of the reverse transcription master mix was dispensed into each well of the reverse transcription plate (semi-skirted). A separate reverse transcription plate was prepared for each cell plate. The plate was loaded onto a Biomek NX or Biomek FX Dual −96 and the Biomek method was run. The program is programmed to automatically added 7 uL of lysate from the cell lysis procedure described above into each well of the reverse transcription plate. The plate is sealed and spun on a centrifuge (1000 rpm for 30 seconds) to settle the contents to the bottom of the reverse transcription plate. The plate is placed in a thermocycler at 37° C. for 60 min, 95° C. for 5 min, and 4° C. until the plate is removed from the thermocycler. Upon removal, if not used immediately, the plate was frozen at −20° C.
(§8) A series of probes and primers were used to detect the various mRNA transcripts of the genes of Bach1, HMOX-1, and GAPDH in mouse and human cell lines. The assays were performed on an ABI 7900 instrument, according to the manufacturer's instructions. […] The PCR reactions were carried out at 50° C. for 2 min, 95° C. for 20 min followed by 40 cycles at 95° C. for 15 secs and 60° C. for 1 min
(§9) Within each experiment, the […] was set in the exponential phase of the amplification curve, and based on the intersection point of the baselines with the amplification curve, a Ct value was assigned by the instrument.
(§10) The expression level of the gene of interest and % knock-down was calculated using Comparative Ct method:
(§11) ΔCt=ΔCt(Target siRNA)−ΔCt(NTC)
(§12) Relative expression level=2^−ΔΔCt
(§13) The non-targeting control siNA was, unless otherwise indicated, chosen as the value against which to calculate the % knock-down, because it is the most relevant control.

[3] = tested on: Bach1 mRNA; assay: Initial screen: Bach1 mRNA knock-down in human A549 cells (96-well transfection, quantitative RT-PCR); type: cell-based; details: Bach1 mRNA, 10 nM siNA, human A549 cells, n = 2, mean ± S.D., normalized to GAPDH and non-targeting control, 24 hrs post-transfection
Protocol: as §1, §2, §3, §4, §5, §6, §7, §8, §9, §10, §11, §12, §13

[4] = tested on: cigarette smoke-induced lung destruction; details: Sussan et al (2009); cited from earlier work

| Molecule | HO-1 protein expression [1] | % KD [2] [%] | % KD [3] [%] | lung oxidative stress markers, alveolar cell apoptosis and the subsequent lung destruction, and pulmonary hypertension [4] |
| --- | --- | --- | --- | --- |
| hemin | increased HO-1 protein expression |  |  |  |
| 29972-DC: Bach1 siNA duplex, target site 1262 (mouse); sense B GAuuuAuAucuGAAGucuA TTB (SEQ 93); antisense UAGAcuucAGAuAuAAAucUU (SEQ 94) (sense GAUUUAUAUCUGAAGUCUATT; antisense UAGACUUCAGAUAUAAAUCUU; sense: DNA at AGT, 2'-fluoro at CU, [invAb] at 5' end, 3' end, backbone not given here; antisense: sugars from the 5' end rrrmffffmmmfmfmmmffmm, backbone not given here) |  | 71.7 ± 5.5 | −3.3 ± 27.4 |  |
| 29981-DC: Bach1 siNA duplex, target site 331 (mouse); sense B cAGcuAcuuccAcucGAGA TTB (SEQ 111); antisense UCUcGAGuGGAAGuAGcuGUU (SEQ 112) (sense CAGCUACUUCCACUCGAGATT; antisense UCUCGAGUGGAAGUAGCUGUU; sense: DNA at AGT, 2'-fluoro at CU, [invAb] at 5' end, 3' end, backbone not given here; antisense: sugars from the 5' end rrrfmmmfmmmmmfmmffmmm, backbone not given here) |  | 3.5 ± 5 | 1 ± 0.9 |  |
| 29951-DC: Bach1 siNA duplex, target site 1162; sense B GccuuuGucAGGuAcAGAc TTB (SEQ 51); antisense GUCuGuAccuGAcAAAGGcUU (SEQ 52) (sense GCCUUUGUCAGGUACAGACTT; antisense GUCUGUACCUGACAAAGGCUU; sense: DNA at AGT, 2'-fluoro at CU, [invAb] at 5' end, 3' end, backbone not given here; antisense: sugars from the 5' end rrrfmfmfffmmfmmmmmfmm, backbone not given here) |  | −22 ± 13.2 | 39 ± 11.2 |  |
| 29975-DC: Bach1 siNA duplex, target site 1893 (mouse); sense B GucGcAAGAGGAAAcuuGA TTB (SEQ 99); antisense UCAAGuuuccucuuGcGAcUU (SEQ 100) (sense GUCGCAAGAGGAAACUUGATT; antisense UCAAGUUUCCUCUUGCGACUU; sense: DNA at AGT, 2'-fluoro at CU, [invAb] at 5' end, 3' end, backbone not given here; antisense: sugars from the 5' end rrrmmfffffffffmfmmfmm, backbone not given here) |  | 40.4 ± 0.4 | 59 ± 8.3 |  |
| 29953-DC: Bach1 siNA duplex, target site 1096; sense B cAcAuAuGAccAAuAuGGu TTB (SEQ 55); antisense ACCAuAuuGGucAuAuGuGUU (SEQ 56) (sense CACAUAUGACCAAUAUGGUTT; antisense ACCAUAUUGGUCAUAUGUGUU; sense: DNA at AGT, 2'-fluoro at CU, [invAb] at 5' end, 3' end, backbone not given here; antisense: sugars from the 5' end rrrmfmffmmffmfmfmfmmm, backbone not given here) |  | −11 ± 3.3 | 24 ± 14.1 |  |
| 29950-DC: Bach1 siNA duplex, target site 470; sense B GAGGAAuccuGcuuucAGu TTB (SEQ 49); antisense ACUGAAAGcAGGAuuccucUU (SEQ 50) (sense GAGGAAUCCUGCUUUCAGUTT; antisense ACUGAAAGCAGGAUUCCUCUU; sense: DNA at AGT, 2'-fluoro at CU, [invAb] at 5' end, 3' end, backbone not given here; antisense: sugars from the 5' end rrrmmmmmfmmmmffffffmm, backbone not given here) |  | 42.5 ± 6.4 | 90.6 ± 1.7 |  |
| 29965-DC: Bach1 siNA duplex, target site 596; sense B GAccAGAGGGAucuAGAAA TTB (SEQ 79); antisense UUUcuAGAucccucuGGucUU (SEQ 80) (sense GACCAGAGGGAUCUAGAAATT; antisense UUUCUAGAUCCCUCUGGUCUU; sense: sugars from the 5' end d2 f2 d7 f3 d7, [invAb] at 5' end, 3' end, backbone not given here; antisense: sugars from the 5' end rrrffmmmfffffffmmffmm, backbone not given here) |  | 4.8 ± 6.3 | 34.4 ± 3.6 |  |
| C[S+]([O-])CCCCN=C=S (centres unmarked) [Sulforaphane] | increased HO-1 protein expression |  |  |  |
| 29962-DC: Bach1 siNA duplex, target site 1240; sense B cAGGGAAGAuAGuAGuGuu TTB (SEQ 73); antisense AACAcuAcuAucuucccuGUU (SEQ 74) (sense CAGGGAAGAUAGUAGUGUUTT; antisense AACACUACUAUCUUCCCUGUU; sense: DNA at AGT, 2'-fluoro at CU, [invAb] at 5' end, 3' end, backbone not given here; antisense: sugars from the 5' end rrrmffmffmffffffffmmm, backbone not given here) |  | 21.3 ± 2.2 | 88 ± 0.7 |  |
| CC1(C)CC[C@]2(C(=O)n3ccnc3)CC[C@]3(C)[C@H](C(=O)C=C4[C@@]5(C)C=C(C#N)C(=O)C(C)(C)[C@@H]5CC[C@]43C)[C@@H]2C1 [CDDO-Im] |  |  |  | significantly reduce |
| 29966-DC: Bach1 siNA duplex, target site 1375; sense B GGccAAAGAuGGcucAGAA TTB (SEQ 81); antisense UUCuGAGccAucuuuGGccUU (SEQ 82) (sense GGCCAAAGAUGGCUCAGAATT; antisense UUCUGAGCCAUCUUUGGCCUU; sense: DNA at AGT, 2'-fluoro at CU, [invAb] at 5' end, 3' end, backbone not given here; antisense: sugars from the 5' end rrrfmmmffmfffffmmffmm, backbone not given here) |  | −12.7 ± 7.4 | 57.3 ± 5.9 |  |
| 29982-DC: Bach1 siNA duplex, target site 1752 (mouse); sense B cAuucAAuGcccAAcGGAu TTB (SEQ 113); antisense AUCcGuuGGGcAuuGAAuGUU (SEQ 114) (sense CAUUCAAUGCCCAACGGAUTT; antisense AUCCGUUGGGCAUUGAAUGUU; sense: DNA at AGT, 2'-fluoro at CU, [invAb] at 5' end, 3' end, backbone not given here; antisense: sugars from the 5' end rrrfmffmmmfmffmmmfmmm, backbone not given here) |  | 9 ± 8.9 | −9.2 ± 4.6 |  |
